Source: patent publication US7202244B2, “Chk-1 inhibitors” (Millennium Pharmaceuticals, Inc., priority 2002, dated 2007)

How the values were obtained:
[1] = biological target: T1, GST-Chk1 (recombinant human Chk1) (Homo sapiens, UniProt O14757); assay: Chk1 FlashPlate kinase assay; assay type: biochemical; settings: 1 uM ATP
T1 construct: made in house; host or cells: insect cells (Bac-to-Bac baculovirus system)
T1 sequence (O14757 1-476): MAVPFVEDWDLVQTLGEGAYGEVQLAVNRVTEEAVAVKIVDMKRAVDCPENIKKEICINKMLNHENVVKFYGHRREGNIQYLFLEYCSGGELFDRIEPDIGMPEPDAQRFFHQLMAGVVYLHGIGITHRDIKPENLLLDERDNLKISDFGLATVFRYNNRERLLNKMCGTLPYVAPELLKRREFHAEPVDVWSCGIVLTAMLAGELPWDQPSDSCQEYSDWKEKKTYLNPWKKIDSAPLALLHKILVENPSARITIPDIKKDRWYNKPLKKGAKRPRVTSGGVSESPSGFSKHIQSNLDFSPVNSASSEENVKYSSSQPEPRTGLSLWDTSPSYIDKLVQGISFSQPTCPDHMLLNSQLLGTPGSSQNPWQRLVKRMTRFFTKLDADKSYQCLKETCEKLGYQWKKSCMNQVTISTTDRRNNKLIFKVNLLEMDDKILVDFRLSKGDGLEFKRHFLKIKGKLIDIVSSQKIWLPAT
Description: Recombinant human Chk1 was expressed as a fusion protein with glutathione S-transferase at the amino-terminus (GST-Chk1) using standard baculovirus vectors and (Bac-to-Bac®) insect cell expression system purchased from GIBCO™ Invitrogen. Recombinant protein expressed in insect cells was purified using glutathione sepharose (Amersham Biotech) using standard procedures described by the manufacturer.
Chk1 FlashPlate® Kinase Assay:
Reactions were incubated for 30 minutes at room temperature, terminated with 50 ul of 50 mM EDTA and 90 ul were transferred to streptavidin-coated FlashPlates® (NEN) and incubated for 1 hour at room temperature. Plates were washed with phosphate buffered salaine containing 0.01% Tween-20 and 10 mM sodium pyrophosphate. Plates were dried, sealed with Topseal™ (NEN) and amount of ^33P incorporated into the peptide substate measure using a Packard Topcount® NXT™ scintillation counter with standard settings.
Compounds of the present invention were tested in the Chk1 FlashPlate® kinase assay described above.

CHK-1 = biological target: T2, CHK-1 (Homo sapiens, UniProt O14757); assay: IC50 for the test compound versus CHK-1 (Table 2, assay format not stated); assay type: biochemical
T2 sequence (O14757 1-476): T1 sequence (O14757 1-476)

[2] = test system: HT29, HCT116 or other cells; assay: WST assay: enhancement of cell killing by DNA damaging agents; assay type: cell-based; settings: shift of 1 = no shift
Description: HT29, HCT116 (5000 cells/well) or other cells were seeded (75 ul) to 96 well clear bottom plates at densities which provide linear growth curves for 72 hours. Cells were cultured under sterile conditions in appropriate media and for HT29 & HCT116 this media was McCoy's 5A containing 10% Fetal Bovine Serum (FBS). Following the initial seeding of cells they are incubated at 37° C., 5% CO2 from 17 to 24 hours at which time the appropriate DNA damaging agents (camptothecins, 5-fluorouracil and etoposid) are added at increasing concentrations to a point which is capable of causing at least 80% cell killing with in 48 hours. Final volume of all DNA damaging agent & compound additions was 25 ul and assays contained <1% DMSO final. At the same time as DNA Damaging agent addition, Chk1 inhibitor was added at fixed concentrations to each DNA damaging agent titration to observe enhancement of cell killing. In addition, toxicity of each Chk1 inhibitor alone was observed. By doing this over a range of Chk1 inhibitor concentrations we were able to identify compounds which maximally enhance (2–30 fold) cell killing by each DNA damaging agent and generated ≦80% cell killing by the compound alone. Cell viability/cell killing under the conditions described above was determined by addition WST reagent (Roche) according to the manufacturer at 47 hours following DNA damage & Chk1 inhibitor addition and following a 3.5 hour or 2.5 hour incubation at 37 C, 5% CO2, OD450 was measured.

- IC50 [1]: < 100 nM
- IC50 (CHK-1): 4.5 nM
SMILES: Cc1cnc(NC(=O)Nc2cc(Cl)ccc2OCCCN(C)C)cn1 [Example 25, 1-[5-Chloro-2-(3-dimethylamino-propoxy)-phenyl]-3-(5-methyl-pyrazin-2-yl)-urea]
- Shift 156 nM ([2]; Chk1 inhibitor fixed at 156 nM with DNA damaging agent titration): 1.1
- Shift 313 nM ([2]; Chk1 inhibitor fixed at 313 nM with DNA damaging agent titration): 1.7
- Shift 625 nM ([2]; Chk1 inhibitor fixed at 625 nM with DNA damaging agent titration): 2.5
- Shift 1.25 μM ([2]; Chk1 inhibitor fixed at 1.25 μM with DNA damaging agent titration): 3.3
- Shift 2.5 μM ([2]; Chk1 inhibitor fixed at 2.5 μM with DNA damaging agent titration): 4.4
